Source: US20260240772A1 (priority 2022, published 2026)

Legend:
[1] = tested on: normal mice; details: subcutaneous injection 10 mg kg^−1; 1 hour after injection; FIG. 10G
[2] = tested on: normal mice; details: subcutaneous injection 10 mg kg^−1; 5-30 min; FIG. 10B

CN1CC[C@]23c4c5ccc(O)c4O[C@H]2[C@@H](O)C=C[C@H]3[C@H]1C5 [morphine single drug, morphine]
number of fecal particles compared with the solvent group [1]: remarkably reduced
heart rate compared with conditions before administration [2]: remarkably reduced
